Test results taken from ChEMBL document CHEMBL5154866 (J Med Chem, 2022).

How the values were obtained:
BaF3 [1] = test: Antiproliferative activity against mouse BaF3 cells expressing ETV6 fused TRKC G623E mutant incubated for 3 days by CCK8 assay; conditions: BaF3, 72 h
BaF3 [2] = test: Antiproliferative activity against mouse BaF3 cells expressing CD74 fused TRKA G667A mutant incubated for 3 days by CCK8 assay; conditions: BaF3, 72 h
BaF3 [3] = test: Antiproliferative activity against mouse BaF3 cells expressing CD74 fused TRKA G667S mutant incubated for 3 days by CCK8 assay; conditions: BaF3, 72 h
BaF3 [4] = test: Antiproliferative activity against mouse BaF3 cells expressing ETV6 fused TRKC G696C mutant incubated for 3 days by CCK8 assay; conditions: BaF3, 72 h
BaF3 [5] = test: Antiproliferative activity against mouse BaF3 cells expressing ETV6 fused TRKC G696A mutant incubated for 3 days by CCK8 assay; conditions: BaF3, 72 h
BaF3 [6] = test: Antiproliferative activity against mouse BaF3 cells expressing ETV6 fused TRKC G696S mutant incubated for 3 days by CCK8 assay; conditions: BaF3, 72 h
BaF3 [7] = test: Antiproliferative activity against mouse BaF3 cells expressing ETV6 fused TRKC G623R mutant incubated for 3 days by CCK8 assay; conditions: BaF3, 72 h
BaF3 [8] = test: Antiproliferative activity against mouse BaF3 cells expressing ETV6 fused TRKC V573M mutant incubated for 3 days by CCK8 assay; conditions: BaF3, 72 h
[9] = Antiproliferative activity against human KM12-Luc cells assessed as inhibition of cell growth incubated for 3 days by CCK8 assay; format: functional, cell-based; conditions: 72 h
BaF3 [10] = test: Antiproliferative activity against mouse BaF3 cells assessed as inhibition of cell growth incubated for 3 days by CCK8 assay; format: functional, cell-based; conditions: BaF3, 72 h
BaF3 [11] = test: cells; conditions: Mus musculus, BaF3, 72 h
BaF3 [12] = test: Antiproliferative activity against mouse BaF3 cells expressing CD74 fused TRKA assessed as cell growth inhibition incubated for 3 days by CCK8 assay; conditions: BaF3, 72 h
BaF3 [13] = test: Antiproliferative activity against mouse BaF3 cells expressing ETV6 fused TRKC assessed as cell growth inhibition incubated for 3 days by CCK8 assay; conditions: BaF3, 72 h
BaF3 [14] = test: cells; conditions: Mus musculus, BaF3, 72 h; remark: listed apart in the source
[15] = biological target: High affinity nerve growth factor receptor (Homo sapiens, UniProt P04629); test: Inhibition of N-terminal hexahistidine tagged TRKA (485 to 795 residues) (unknown origin) expressed in Sf9 cells using Ser/Thr 06 peptide as substrate incubated for 1 hr in presence of 400 uM ATP by FRET based Z'-Lyte assay
High affinity nerve growth factor receptor (Homo sapiens, UniProt P04629), sequence (P04629 whole entry, the tested form may be a part): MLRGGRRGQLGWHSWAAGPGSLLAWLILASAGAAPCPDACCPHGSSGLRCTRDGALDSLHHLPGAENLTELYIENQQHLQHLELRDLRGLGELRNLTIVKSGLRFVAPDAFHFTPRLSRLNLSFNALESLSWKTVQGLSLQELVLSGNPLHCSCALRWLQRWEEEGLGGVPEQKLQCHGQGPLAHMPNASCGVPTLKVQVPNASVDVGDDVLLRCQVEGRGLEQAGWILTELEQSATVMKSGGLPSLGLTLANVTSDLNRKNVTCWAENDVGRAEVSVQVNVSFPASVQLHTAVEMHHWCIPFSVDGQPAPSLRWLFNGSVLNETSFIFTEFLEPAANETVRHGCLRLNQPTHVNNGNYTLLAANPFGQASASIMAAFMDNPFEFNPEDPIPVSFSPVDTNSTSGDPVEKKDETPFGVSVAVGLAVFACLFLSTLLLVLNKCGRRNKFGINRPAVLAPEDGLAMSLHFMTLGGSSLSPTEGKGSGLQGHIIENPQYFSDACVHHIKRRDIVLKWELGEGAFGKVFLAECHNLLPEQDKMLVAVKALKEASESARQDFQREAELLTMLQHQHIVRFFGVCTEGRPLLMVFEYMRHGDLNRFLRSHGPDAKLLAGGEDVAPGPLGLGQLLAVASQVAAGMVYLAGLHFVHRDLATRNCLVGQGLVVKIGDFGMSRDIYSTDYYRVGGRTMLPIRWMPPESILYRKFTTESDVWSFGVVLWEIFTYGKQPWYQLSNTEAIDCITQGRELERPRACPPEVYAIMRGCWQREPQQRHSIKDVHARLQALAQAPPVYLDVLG

[16] = biological target: High affinity nerve growth factor receptor (Homo sapiens, UniProt P04629, G667C); test: Inhibition of TRKA G667C mutant (unknown origin) using Ser/Thr 06 peptide as substrate incubated for 1 hr in presence of 400 uM ATP by FRET based Z'-Lyte assay
High affinity nerve growth factor receptor (Homo sapiens, UniProt P04629, G667C), sequence (P04629 33-796 G667C limits assumed): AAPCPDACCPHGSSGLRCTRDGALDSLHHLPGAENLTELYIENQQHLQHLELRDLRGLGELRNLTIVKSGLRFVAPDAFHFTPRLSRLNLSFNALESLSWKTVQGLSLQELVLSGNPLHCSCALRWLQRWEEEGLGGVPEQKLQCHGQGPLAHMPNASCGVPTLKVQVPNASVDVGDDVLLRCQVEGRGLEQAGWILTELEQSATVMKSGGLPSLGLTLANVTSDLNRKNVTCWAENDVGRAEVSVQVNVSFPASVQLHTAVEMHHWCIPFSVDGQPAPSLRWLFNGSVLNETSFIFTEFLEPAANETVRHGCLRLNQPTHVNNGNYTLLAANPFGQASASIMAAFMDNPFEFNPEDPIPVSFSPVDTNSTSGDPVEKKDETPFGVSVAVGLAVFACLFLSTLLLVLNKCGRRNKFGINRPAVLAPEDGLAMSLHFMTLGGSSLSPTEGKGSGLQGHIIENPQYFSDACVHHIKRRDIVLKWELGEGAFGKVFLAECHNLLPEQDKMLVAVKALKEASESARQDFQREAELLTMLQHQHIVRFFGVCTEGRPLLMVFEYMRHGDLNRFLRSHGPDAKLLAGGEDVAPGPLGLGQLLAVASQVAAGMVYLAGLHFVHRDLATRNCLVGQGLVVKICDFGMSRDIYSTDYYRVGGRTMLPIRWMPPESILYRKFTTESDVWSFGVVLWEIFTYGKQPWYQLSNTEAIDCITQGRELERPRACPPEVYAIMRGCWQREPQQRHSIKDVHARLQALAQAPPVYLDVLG

[17] = biological target: High affinity nerve growth factor receptor (Homo sapiens, UniProt P04629, G595R); test: Inhibition of TRKA G595R mutant (unknown origin) by HTRF assay
High affinity nerve growth factor receptor (Homo sapiens, UniProt P04629, G595R), sequence (P04629 33-796 G595R limits assumed): as the sequence (P04629 33-796 G667C limits assumed) above, with G563R, C635G counted along it

[18] = biological target: Epithelial discoidin domain-containing receptor 1 (Homo sapiens, UniProt Q08345); test: Inhibition of human wild type partial length DDR1(R565 to V876 residue) expressed in bacterial expression system by Kinomescan method
Epithelial discoidin domain-containing receptor 1, sequence (Q08345 whole entry, the tested form may be a part): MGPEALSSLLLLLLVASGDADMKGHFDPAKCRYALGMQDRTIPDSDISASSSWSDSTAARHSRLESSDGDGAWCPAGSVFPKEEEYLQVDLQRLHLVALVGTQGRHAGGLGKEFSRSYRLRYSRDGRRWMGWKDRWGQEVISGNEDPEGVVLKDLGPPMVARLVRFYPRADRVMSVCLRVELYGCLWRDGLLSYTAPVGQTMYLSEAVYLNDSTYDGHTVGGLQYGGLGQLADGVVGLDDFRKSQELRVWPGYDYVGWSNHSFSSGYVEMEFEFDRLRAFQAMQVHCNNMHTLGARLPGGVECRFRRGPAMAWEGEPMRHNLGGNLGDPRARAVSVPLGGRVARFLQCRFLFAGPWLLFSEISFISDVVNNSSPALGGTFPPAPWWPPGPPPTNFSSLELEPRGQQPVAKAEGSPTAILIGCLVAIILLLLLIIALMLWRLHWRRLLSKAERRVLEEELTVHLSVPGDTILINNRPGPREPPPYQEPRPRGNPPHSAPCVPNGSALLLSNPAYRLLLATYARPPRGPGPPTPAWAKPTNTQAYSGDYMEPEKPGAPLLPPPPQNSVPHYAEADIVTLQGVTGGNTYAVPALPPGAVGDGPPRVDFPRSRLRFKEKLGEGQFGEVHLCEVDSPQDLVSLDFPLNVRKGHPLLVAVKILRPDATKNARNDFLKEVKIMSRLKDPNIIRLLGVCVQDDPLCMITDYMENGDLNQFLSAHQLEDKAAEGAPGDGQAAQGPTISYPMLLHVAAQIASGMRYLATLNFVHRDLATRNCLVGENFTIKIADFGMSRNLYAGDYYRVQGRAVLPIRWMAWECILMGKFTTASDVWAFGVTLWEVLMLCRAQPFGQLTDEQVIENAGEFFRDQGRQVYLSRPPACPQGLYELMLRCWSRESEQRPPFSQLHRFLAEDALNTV

[19] = biological target: T1, Discoidin domain-containing receptor 2 (Homo sapiens, UniProt Q16832); test: Inhibition of human wild type partial length DDR2 (V555 to E855 residues) expressed in mammalian expression system by Kinomescan method
T1 sequence (Q16832 whole entry): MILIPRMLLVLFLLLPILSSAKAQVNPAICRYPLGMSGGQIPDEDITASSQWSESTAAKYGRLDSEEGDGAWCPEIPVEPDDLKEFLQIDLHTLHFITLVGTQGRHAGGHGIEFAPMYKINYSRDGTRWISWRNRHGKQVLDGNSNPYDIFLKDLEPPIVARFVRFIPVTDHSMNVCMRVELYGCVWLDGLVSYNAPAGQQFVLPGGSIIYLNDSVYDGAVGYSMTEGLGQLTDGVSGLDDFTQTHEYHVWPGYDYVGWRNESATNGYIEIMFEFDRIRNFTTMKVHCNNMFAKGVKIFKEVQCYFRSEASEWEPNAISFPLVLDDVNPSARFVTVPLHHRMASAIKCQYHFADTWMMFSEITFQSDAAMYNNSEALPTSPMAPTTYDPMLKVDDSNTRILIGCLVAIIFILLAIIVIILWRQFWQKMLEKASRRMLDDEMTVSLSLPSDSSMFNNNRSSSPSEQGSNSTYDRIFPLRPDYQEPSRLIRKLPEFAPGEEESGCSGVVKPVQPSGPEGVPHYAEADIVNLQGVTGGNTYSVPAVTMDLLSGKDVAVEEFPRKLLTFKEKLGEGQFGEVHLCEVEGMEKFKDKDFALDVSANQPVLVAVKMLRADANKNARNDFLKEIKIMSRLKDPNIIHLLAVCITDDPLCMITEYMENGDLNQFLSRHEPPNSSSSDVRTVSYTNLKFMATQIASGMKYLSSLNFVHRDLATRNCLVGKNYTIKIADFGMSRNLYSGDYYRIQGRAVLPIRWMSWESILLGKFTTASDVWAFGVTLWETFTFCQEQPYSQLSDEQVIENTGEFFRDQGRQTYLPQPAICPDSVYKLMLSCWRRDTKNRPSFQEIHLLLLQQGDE

Ephrin type-A receptor 7 = Ephrin type-A receptor 7 (Homo sapiens, UniProt Q15375); test: Inhibition of human wild type partial length EphA7 (Y608 to S912 residues) expressed in bacterial expression system by Kinomescan method
Ephrin type-A receptor 7, sequence (Q15375 whole entry, the tested form may be a part): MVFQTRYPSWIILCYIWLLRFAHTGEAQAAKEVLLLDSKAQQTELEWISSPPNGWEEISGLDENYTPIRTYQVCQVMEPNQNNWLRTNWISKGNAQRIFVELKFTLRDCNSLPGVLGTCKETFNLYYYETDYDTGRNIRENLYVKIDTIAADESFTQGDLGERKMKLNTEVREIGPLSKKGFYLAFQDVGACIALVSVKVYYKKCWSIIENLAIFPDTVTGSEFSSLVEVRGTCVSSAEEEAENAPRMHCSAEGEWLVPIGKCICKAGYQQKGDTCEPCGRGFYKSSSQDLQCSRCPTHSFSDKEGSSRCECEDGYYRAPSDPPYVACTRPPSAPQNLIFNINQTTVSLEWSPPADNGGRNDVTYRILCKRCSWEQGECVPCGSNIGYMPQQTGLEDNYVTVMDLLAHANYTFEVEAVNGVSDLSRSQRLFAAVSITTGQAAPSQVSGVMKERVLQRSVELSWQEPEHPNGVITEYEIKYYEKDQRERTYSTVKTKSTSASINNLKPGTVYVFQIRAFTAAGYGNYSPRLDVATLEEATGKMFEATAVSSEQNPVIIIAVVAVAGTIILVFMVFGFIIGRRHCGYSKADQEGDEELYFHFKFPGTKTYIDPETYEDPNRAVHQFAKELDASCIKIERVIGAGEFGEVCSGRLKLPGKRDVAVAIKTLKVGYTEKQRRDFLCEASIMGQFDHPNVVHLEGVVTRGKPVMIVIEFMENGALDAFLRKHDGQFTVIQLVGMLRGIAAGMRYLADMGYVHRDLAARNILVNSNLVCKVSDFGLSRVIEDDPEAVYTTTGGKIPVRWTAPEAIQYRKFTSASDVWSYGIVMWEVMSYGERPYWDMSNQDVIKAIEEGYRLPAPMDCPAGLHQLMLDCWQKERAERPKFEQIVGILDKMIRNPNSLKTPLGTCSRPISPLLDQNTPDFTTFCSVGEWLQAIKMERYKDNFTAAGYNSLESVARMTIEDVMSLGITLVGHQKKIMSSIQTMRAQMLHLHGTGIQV

Angiopoietin-1 receptor = Angiopoietin-1 receptor (Homo sapiens, UniProt Q02763); test: Inhibition human wild type partial length Tie2 (N804 to T1112 residues) expressed in bacterial expression system by Kinomescan method
Angiopoietin-1 receptor, sequence (Q02763 whole entry, the tested form may be a part): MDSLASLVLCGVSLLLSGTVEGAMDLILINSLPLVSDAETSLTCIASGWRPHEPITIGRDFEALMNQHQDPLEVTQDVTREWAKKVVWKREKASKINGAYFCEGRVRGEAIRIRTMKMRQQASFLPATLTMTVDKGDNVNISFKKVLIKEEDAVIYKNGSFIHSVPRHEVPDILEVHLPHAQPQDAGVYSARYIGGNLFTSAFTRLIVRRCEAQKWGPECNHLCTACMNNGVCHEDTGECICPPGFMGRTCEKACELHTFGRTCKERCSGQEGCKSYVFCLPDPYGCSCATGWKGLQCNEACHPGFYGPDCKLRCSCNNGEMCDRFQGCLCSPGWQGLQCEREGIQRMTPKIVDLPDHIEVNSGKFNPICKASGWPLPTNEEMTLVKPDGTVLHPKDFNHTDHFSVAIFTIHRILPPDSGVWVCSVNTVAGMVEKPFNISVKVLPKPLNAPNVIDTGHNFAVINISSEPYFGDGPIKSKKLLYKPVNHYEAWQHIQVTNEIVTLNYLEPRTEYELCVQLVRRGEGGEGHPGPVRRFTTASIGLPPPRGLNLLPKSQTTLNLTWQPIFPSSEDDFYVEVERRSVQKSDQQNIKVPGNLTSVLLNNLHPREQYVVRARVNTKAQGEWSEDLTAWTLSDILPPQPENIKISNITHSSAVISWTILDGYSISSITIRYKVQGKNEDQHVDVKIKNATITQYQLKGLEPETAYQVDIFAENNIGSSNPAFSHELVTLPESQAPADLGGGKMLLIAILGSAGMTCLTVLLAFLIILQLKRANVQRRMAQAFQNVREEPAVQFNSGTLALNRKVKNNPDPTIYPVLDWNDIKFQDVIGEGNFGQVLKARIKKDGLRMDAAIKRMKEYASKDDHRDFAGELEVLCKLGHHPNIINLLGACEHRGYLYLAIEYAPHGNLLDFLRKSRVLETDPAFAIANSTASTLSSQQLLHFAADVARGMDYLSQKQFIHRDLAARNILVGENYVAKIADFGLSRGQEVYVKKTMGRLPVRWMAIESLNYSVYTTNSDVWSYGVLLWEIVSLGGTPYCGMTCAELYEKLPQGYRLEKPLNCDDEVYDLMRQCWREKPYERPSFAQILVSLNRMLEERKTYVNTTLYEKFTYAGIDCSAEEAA

[20] = AUC (0 to t) in Sprague-Dawley rat at 10 mg/kg, po measured upto 24 hrs by LC-MS/MS analysis; format: ADME, organism-based; parameters: time < 24 hrs, dose 10 mg/kg, route po; conditions: in vivo
[21] = Cmax in Sprague-Dawley rat at 10 mg/kg, po measured upto 24 hrs by LC-MS/MS analysis; format: ADME, organism-based; parameters: dose 10 mg/kg, time < 24 hrs, route po; conditions: in vivo

Row | Structure (SMILES) | IC50 (BaF3 [1]) | IC50 (BaF3 [2]) | IC50 (BaF3 [3]) | IC50 (BaF3 [4]) | IC50 (BaF3 [5]) | IC50 (BaF3 [7]) | IC50 (BaF3 [8]) | IC50 (BaF3 [11]) | IC50 (BaF3 [12]) | IC50 (BaF3 [13]) | IC50 (BaF3 [14]) | further results
1 | C[C@@H]1CCc2ncc(F)cc2[C@H]2CCCN2c2ccn3ncc(c3n2)C(=O)N1 [SELITRECTINIB] | 5.7 nM | 3.2 nM | 10.5 nM | 28.2 nM | 2.4 nM | 8.5 nM | 10.7 nM | 41 nM |  |  |  | IC50 (BaF3 [6]): 8.2 nM; IC50 [9]: 2.3 nM; IC50 (BaF3 [10]): > 10000 nM
2 | O=C(Nc1cnn2ccc(N3CCC[C@@H]3c3cc(F)ccc3F)nc12)N1CC[C@H](O)C1 [LAROTRECTINIB] | 96 nM | 10.1 nM | 38.2 nM | 332 nM | 14.8 nM | > 1000 nM | 173 nM | 110 nM | 9 nM | 7 nM | 1550 nM | 
3 | Cc1c2cc(cc1C(=O)Nc1cc(CN3CCN(C)CC3)cc(C(F)(F)F)c1)OCCCCC(=O)NCCN(C)c1ccc3ncc(n3n1)C#C2 |  |  |  |  |  |  |  | 35 nM | 140 nM | 180 nM | 520 nM | IC50 [15]: 7.8 nM; IC50 [16]: 2.7 nM; IC50 [17]: 80.6 nM
4 | Cc1cn(-c2cc(NC(=O)c3cc4cc(c3C)C#Cc3cnc5ccc(nn35)N(C)CCNC(=O)CCCCO4)cc(C(F)(F)F)c2)cn1 |  |  |  |  |  |  |  |  |  |  |  | IC50 [18]: 26.4 nM; IC50 [19]: 313 nM; IC50 (Ephrin type-A receptor 7): 162 nM; IC50 (Angiopoietin-1 receptor): 217 nM; AUC(0-t) at 24 h [20]: 51.6 ng·h/mL; Cmax [21]: 19.1 ng/mL
